Reference: article PMC3131601, “A Novel Cold-Active Lipase from Candida albicans: Cloning, Expression and Characterization of the Recombinant Enzyme” (International Journal of Molecular Sciences, 2011)

system: T1, Lip5-DM (recombinant Lip5, CALip5); assay: p-nitrophenol release at […] nm, Lineweaver-Burk; type: biochemical, Candida albicans; details: 100 mM Na2HPO4-NaH2PO4 pH 6.0; kinetics run at 5, 15 and 25 °C, temperature of table values not stated
T1 construct: putative 14-residue signal peptide removed; secreted from Pichia pastoris X-33 (pGAPZalphaA), about 50 kDa

Row | Compound | Km [µM]
1 | CCCC(=O)Oc1ccc([N+](=O)[O-])cc1 [C4, p-NP-butyrate] | 410
2 | CCCCCCCC(=O)Oc1ccc([N+](=O)[O-])cc1 [C8, p-NP-caprylate] | 270
3 | CCCCCCCCCCCC(=O)Oc1ccc([N+](=O)[O-])cc1 [C12, p-NP-laurate] | 500
4 | CCCCCCCCCCCCCCCC(=O)Oc1ccc([N+](=O)[O-])cc1 [C16, p-NP-palmitate] | 360
